Experimental data published in patent US9505749B2, “Quinazolinone compounds and derivatives thereof” (AMGEN INC., priority 2012, dated 2016).

Tests used:
PARP1 = PARP1 (Homo sapiens (Human), UniProt P09874); assay: PARP1 biochemical assay (Trevigen kit)
From the text: PARP1 biochemical assay was purchased as a kit from Trevigen (cat.#4676-096-K) and used per manufacturers recommendations.

[1] = system: Axin2 accumulation in SW480 cells; assay: Axin2 384 immunofluorescence assay; assay type: cell-based; conditions: Homo sapiens; SW480 cells, 24 hours; read-out: Axin2 384 IF EC50
[2] = biological target: 6×HIS-tankyrase1 (1091-1325) (Homo sapiens (Human), UniProt O95271); assay: Tankyrase 1 biochemical assay (AlphaLisa, PARsylation); conditions: 400 nM NAD, 60 minutes at RT; read-out: TNKS1 IC50
[3] = system: total β-catenin in SW480 colorectal cells; assay: Total β-catenin MSD 96-well plate assay for SW480 cells; conditions: Homo sapiens, SW480, read-out: SW480-Total beta-catenin (TBC) IC50 IP
[4] = biological target: 6×HIS-tankyrase 2 (946-1162) (Homo sapiens (Human), UniProt Q9H2K2); assay: Tankyrase 2 biochemical assay (AlphaLisa, PARsylation); conditions: 250 nM NAD; read-out: TNKS2 IC50
PARP2 = PARP2 (Homo sapiens (Human), UniProt Q9UGN5); assay: PARP2 biochemical assay (BPS kit)
Sequence of PARP2 (Q9UGN5 whole entry): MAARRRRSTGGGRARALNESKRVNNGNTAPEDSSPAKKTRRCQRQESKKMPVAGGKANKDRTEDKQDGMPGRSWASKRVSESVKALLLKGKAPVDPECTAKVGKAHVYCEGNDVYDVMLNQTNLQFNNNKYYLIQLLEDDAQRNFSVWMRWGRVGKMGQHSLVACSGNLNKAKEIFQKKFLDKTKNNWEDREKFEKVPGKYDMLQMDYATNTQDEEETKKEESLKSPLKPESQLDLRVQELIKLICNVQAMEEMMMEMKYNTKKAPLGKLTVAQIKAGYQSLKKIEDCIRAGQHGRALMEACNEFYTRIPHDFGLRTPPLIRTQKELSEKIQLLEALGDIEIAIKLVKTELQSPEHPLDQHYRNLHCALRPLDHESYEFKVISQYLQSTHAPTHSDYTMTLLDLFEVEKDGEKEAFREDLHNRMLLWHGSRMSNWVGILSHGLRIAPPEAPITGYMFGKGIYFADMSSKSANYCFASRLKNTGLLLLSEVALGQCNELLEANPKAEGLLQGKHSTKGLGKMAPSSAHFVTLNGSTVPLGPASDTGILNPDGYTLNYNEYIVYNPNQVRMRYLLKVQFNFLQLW

Sequence of PARP1 (P09874 whole entry): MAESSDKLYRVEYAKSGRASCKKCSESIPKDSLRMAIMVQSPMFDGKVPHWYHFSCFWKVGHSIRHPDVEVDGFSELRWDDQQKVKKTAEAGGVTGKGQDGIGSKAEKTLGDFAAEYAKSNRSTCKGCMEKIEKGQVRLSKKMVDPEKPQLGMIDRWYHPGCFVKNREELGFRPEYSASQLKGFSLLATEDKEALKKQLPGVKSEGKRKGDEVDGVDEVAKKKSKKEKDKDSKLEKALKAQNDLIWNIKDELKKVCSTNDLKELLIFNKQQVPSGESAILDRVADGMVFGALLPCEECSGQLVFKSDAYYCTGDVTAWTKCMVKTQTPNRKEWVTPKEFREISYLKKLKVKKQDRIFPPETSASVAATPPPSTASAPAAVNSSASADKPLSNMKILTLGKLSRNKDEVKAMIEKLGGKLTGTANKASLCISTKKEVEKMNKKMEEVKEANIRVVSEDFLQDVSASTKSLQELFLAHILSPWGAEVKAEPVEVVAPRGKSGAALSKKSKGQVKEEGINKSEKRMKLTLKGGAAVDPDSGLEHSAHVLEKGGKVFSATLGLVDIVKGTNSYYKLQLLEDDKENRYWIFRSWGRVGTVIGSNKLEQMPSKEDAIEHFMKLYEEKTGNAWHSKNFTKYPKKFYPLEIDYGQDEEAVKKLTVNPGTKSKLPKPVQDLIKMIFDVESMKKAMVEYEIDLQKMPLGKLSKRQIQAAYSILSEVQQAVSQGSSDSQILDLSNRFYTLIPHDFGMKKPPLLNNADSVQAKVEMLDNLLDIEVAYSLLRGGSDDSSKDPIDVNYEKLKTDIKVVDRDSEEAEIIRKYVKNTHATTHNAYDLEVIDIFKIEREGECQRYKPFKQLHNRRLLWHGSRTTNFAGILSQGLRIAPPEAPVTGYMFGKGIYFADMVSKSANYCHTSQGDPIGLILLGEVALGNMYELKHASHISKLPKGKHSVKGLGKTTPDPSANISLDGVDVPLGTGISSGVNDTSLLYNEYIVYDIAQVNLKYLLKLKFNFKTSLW
Sequence of 6×HIS-tankyrase1 (1091-1325) (O95271 1091-1325): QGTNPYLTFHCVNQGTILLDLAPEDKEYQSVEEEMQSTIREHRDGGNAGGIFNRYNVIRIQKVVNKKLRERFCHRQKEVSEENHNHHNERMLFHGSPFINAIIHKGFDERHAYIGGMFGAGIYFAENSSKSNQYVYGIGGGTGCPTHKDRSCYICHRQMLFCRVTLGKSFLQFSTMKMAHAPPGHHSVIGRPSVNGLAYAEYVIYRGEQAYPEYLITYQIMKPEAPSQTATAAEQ
Sequence of 6×HIS-tankyrase 2 (946-1162) (Q9H2K2 946-1162): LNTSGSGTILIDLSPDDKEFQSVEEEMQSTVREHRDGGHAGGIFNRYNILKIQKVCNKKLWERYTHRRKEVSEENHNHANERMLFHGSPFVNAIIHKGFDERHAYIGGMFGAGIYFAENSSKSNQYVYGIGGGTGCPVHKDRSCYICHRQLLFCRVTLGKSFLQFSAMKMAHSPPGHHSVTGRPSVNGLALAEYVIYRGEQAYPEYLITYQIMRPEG

SMILES | IC50 (PARP1) [nM] | EC50 [1] [nM] | IC50 [2] [nM] | IC50 [3] [nM] | IC50 [4] [nM] | IC50 (PARP2) [nM]
O=C(CCCc1nc2ccccc2c(=O)[nH]1)N1CCC(n2c(=O)oc3ccccc32)CC1 [Example 44, 2-(4-oxo-4-(4-(2-oxo-1,3-benzoxazol-3(2H)-yl)-1-piperidinyl)butyl)-4(3H)-quinazolinone] | 7610 | 2930 | 8.97 | 681 | 3.53 | 363
O=C(CCCc1nc2ccccc2c(=O)[nH]1)N[C@H]1CC[C@H](c2nnc(-c3cccc(Cl)c3)o2)CC1 [Example 36, N-(trans-4-(5-(3-chlorophenyl)-1,3,4-oxadiazol-2-yl)cyclohexyl)-4-(4-oxo-3,4-dihydro-2-quinazolinyl)butanamide 2,2,2-trifluoroacetate] | 1140 | 22 | 0.367 | 29.9 | 0.27 | 701
N#Cc1ccccc1O[C@H]1CC[C@H](NC(=O)CCCc2nc3ccccc3c(=O)[nH]2)CC1 [Example 57, N-(trans-4-(2-cyanophenoxy)cyclohexyl)-4-(4-oxo-3,4-dihydro-2-quinazolinyl)butanamide] | 5960 | 1710 | 31.2 | 510 | 12.5 | 905
O=C(CCSc1nc2ccccc2c(=O)[nH]1)N[C@H]1CC[C@H](c2nnc(-c3ccc(F)c(Cl)c3)o2)CC1 [Example 122, N-((1r,4r)-4-(5-(3-chloro-4-fluorophenyl)-1,3,4-oxadiazol-2-yl)cyclohexyl)-3-((4-oxo-3,4-dihydroquinazolin-2-yl)thio)propanamide] | > 9440 | 4.47 | 0.153 | 3.04 | 1.38 | 7690

Second part, the compound after the results:

IC50 (PARP1) [nM] | EC50 [1] [nM] | IC50 [2] [nM] | IC50 [3] [nM] | IC50 [4] [nM] | IC50 (PARP2) [nM] | SMILES
> 85000 | 59.7 | 0.524 | 14.1 | 0.227 | 470 | O=C(CCc1nc2ccccc2c(=O)[nH]1)N[C@H]1CC[C@H](n2c(=O)[nH]c3cc(Cl)ccc32)CC1 [Example 85, N-((1r,4r)-4-(5-chloro-2-oxo-2,3-dihydro-1H-benzo[d]imidazol-1-yl)cyclohexyl)-3-(4-oxo-3,4-dihydroquinazolin-2-yl)propanamide]
1710 | 601 | 4.37 | 119 | 0.601 | 1820 | O=C(CCCc1nc2ccccc2c(=O)[nH]1)N[C@H]1CC[C@H](Oc2ccc(F)cc2)CC1 [Example 77, N-(trans-4-(4-fluorophenoxy)cyclohexyl)-4-(4-oxo-3,4-dihydro-2-quinazolinyl)butanamide]
1490 | 3380 | 8.05 | 1710 | 4.91 | 500 | O=C(CCCc1nc2ccccc2c(=O)[nH]1)N1CCC(n2c(=O)[nH]c3ccccc32)CC1 [Example 41, 2-(4-oxo-4-(4-(2-oxo-2,3-dihydro-1H-benzimidazol-1-yl)-1-piperidinyl)butyl)-4(3H)-quinazolinone trifluoroacetic acid]
8540 | 1250 | 79.7 | 837 | 15.5 | 2180 | O=C(CCCc1nc2ccccc2c(=O)[nH]1)N1CCC(c2nnc(-c3cnccn3)o2)CC1 [Example 14, 2-(4-oxo-4-(4-(5-(2-pyrazinyl)-1,3,4-oxadiazol-2-yl)-1-piperidinyl)butyl)-4(3H)-quinazolinone]
2440 | 1270 | 3.97 | 233 | 1.18 | 1590 | O=C(CCCc1nc2ccccc2c(=O)[nH]1)N1CCC(n2c(=O)[nH]c3ncccc32)CC1 [Example 47, 2-(4-oxo-4-(4-(2-oxo-2,3-dihydro-1H-imidazo[4,5-b]pyridin-1-yl)-1-piperidinyl)butyl)-4(3H)-quinazolinone trifluoroacetic acid]
